Assay [1] has as its system H3K9me2 in CD34+ cells. Put plainly: Western blotting of H3K9me2 in CD34+ cells. The format is cell-based, human. The procedure:
HUDEP-2 cells and HiDEP-1 cells were grown in Stemline II Hematopoietic Stem Cell Expansion Medium (Sigma) supplemented with 50 ng/mL recombinant stem cell factor (SCF; R&D systems), 3 IU/mL recombinant erythropoietin (EPO; Kyowa Kirin), 1 μM dexamethasone (Dex; Sigma), and 1 μg/mL doxycycline (Sigma). A total of 1 × 10^5 human CD34^+ progenitor cells derived from bone marrow or peripheral blood (Lonza) were cultured on 35-mm dishes (BD Falcon) in StemSpan SFEMII medium with 50 ng/mL SCF, 5 IU/mL EPO, and 10 ng /mL interleukin 3 (IL-3; R&D systems). The medium was changed on day 4 to SCF, EPO, and 1 μM Dex, and the cells were transferred to 60-mm dishes (BD Falcon). Seven days after the onset of differentiation, cells were counted and 1 × 10^6 cells were re-plated on 100-mm dishes (BD Falcon) with SCF, EPO, and Dex. The rat myoblast cell line H9c2, HEK293T, and PLAT-E cells were maintained in Dulbecco’s modified Eagle’s medium (Thermo Fisher Scientific) supplemented with 10% heat-inactivated fetal bovine serum (FBS) and penicillin/streptomycin. All cells were cultured at 37 °C under 5% CO2.
Preparation of cell lysates and western blotting were performed as described previously. […] The immune complexes were detected with the Immobilon Western Chemiluminescent HRP Substrate (Millipore). Luminescence was analyzed on a FUSION SOLO S (Vilber). […]
In general terms: A western blot detects proteins with antibodies after separation by electrophoresis.

The subject of assay [2] is γ-globin proteins in CD34+-derived cells. The assay is described as follows: γ-globin protein quantification by LC-MS/MS in CD34+-derived cells. It is filed as cell-based, human. The procedure: The extraction and digestion of proteins were performed according to the method reported in a previous paper. Briefly, collected cell pellets, 120 μL of water, 12.5 μL of acetonitrile, and 12.5 μL of 1% formic acid were mixed and sonicated. The mixture was centrifuged to remove the cell debris and the supernatant was collected. Ten microliters of supernatant was reduced by dithiothreitol, alkylated with iodoacetamide, and digested with trypsin/Lys-C mix (Promega) in 50 mM ammonium bicarbonate (pH 8.0) (Sigma) at 37 °C overnight. For protein quantification analysis by LC–MS/MS, 10 pmol of stable isotope–labeled peptides (synthesized by the Support Unit for Bio-Material Analysis, RIKEN Center for Brain Science) were added to the digested sample as an internal standard. The digested sample was stored at −25 °C until analysis. The trypsinized sample was applied to an EASY-nLC 1000 liquid chromatograph (Thermo Fisher Scientific) and Q-Exactive mass spectrometer (Thermo Fisher Scientific) equipped with a nanospray ion source (Thermo Fisher Scientific). […]
Protein quantification was performed using Vanquish UHPLC (Thermo Fisher Scientific) and TSQ-Vantage EMR (Thermo Fisher Scientific) with a HESI-II ion source (Thermo Fisher Scientific) in multiple reaction monitoring (MRM) mode. […]

Assay [3] concerns the target PRMT5/MEP50 (Homo sapiens, UniProt O14744). The assay is described as follows: biochemical.
Assay [4] addresses NSD2 (E1099K) (Homo sapiens, UniProt O96028, E1099K). Put plainly: Radioisotope-based methyltransferase assay (selectivity).
Assay [5] has as its system CD34+ cells. Put plainly: Flow cytometry of erythroid differentiation (CD45, glycophorin A). It is filed as cell-based, human. The procedure: For the analysis of HbF expression, HUDEP-2 cells or cells differentiated from human CD34 + progenitor cells were fixed in 0.05% glutaraldehyde for 10 min, then washed two times with PBS containing 2% FBS (PBS/2% FBS) and permeabilized with 0.1% Triton X-100 (prepared in PBS/2% FBS; Life Technologies) for 5 min. After washing with PBS/2% FBS two times, cells were stained with allophycocyanin (APC)-conjugated HbF antibody (1:1, Invitrogen, MHFH05). One million cells were incubated with the HbF–APC antibody for 30 min in the dark at 4 °C. Cells were washed twice with PBS/2% FBS, then suspended in 0.2 ml PBS/2% FBS and analyzed using a FACSCalibur (Becton Dickinson). To assess erythroid differentiation, hematopoietic cells differentiated from human CD34 cells were stained with FITC-conjugated CD45 antibody (1:1, Becton Dickinson, 555482) and APC-conjugated glycophorin A antibody (1:20, Becton Dickinson, 551336). Stained cells were suspended in 0.2 ml PBS/2% FBS containing 1 μg/ml propidium iodide (Sigma) and analyzed by FACSCalibur. The results of flow cytometer were further analyzed by FlowJo software (Becton Dickinson).
A general note: In flow cytometry, cells or beads pass a laser one at a time.

The values that follow come from paper PMC9837035 (Nature Communications, 2023).

Structures are written as SMILES. Several values for one entry are separate records, joined by “and”; a condition that tells them apart may be missing. Identical values can stand only once.

PRMT5/MEP50, sequence (O14744 whole entry): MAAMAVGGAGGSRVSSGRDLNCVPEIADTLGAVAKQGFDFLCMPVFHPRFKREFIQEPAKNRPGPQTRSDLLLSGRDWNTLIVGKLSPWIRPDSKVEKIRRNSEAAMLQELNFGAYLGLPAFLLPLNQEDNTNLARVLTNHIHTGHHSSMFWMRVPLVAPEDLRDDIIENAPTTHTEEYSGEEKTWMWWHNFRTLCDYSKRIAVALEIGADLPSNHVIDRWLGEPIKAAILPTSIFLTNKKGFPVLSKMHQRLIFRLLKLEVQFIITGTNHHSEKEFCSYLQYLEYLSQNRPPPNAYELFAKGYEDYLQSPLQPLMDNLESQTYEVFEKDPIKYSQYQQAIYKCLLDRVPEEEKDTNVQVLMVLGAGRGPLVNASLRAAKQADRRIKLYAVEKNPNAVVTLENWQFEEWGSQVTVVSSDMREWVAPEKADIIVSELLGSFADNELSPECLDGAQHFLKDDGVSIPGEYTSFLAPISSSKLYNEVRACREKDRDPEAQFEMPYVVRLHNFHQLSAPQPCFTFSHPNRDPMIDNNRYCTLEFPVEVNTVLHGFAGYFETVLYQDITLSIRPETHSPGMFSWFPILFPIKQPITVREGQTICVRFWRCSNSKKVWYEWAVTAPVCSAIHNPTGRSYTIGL
PRMT5/MEP50, sequence (Q9BQA1 whole entry partner): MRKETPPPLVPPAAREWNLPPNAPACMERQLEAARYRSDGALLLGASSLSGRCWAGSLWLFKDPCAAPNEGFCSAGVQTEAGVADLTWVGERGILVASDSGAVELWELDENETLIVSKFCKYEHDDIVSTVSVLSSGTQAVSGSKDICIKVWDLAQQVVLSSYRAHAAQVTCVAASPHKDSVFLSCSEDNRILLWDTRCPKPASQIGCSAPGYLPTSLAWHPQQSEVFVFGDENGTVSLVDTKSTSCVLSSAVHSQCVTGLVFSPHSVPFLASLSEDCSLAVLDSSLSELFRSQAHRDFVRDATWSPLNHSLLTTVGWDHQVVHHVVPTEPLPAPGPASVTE
NSD2 (E1099K), sequence (O96028 whole entry E1099K): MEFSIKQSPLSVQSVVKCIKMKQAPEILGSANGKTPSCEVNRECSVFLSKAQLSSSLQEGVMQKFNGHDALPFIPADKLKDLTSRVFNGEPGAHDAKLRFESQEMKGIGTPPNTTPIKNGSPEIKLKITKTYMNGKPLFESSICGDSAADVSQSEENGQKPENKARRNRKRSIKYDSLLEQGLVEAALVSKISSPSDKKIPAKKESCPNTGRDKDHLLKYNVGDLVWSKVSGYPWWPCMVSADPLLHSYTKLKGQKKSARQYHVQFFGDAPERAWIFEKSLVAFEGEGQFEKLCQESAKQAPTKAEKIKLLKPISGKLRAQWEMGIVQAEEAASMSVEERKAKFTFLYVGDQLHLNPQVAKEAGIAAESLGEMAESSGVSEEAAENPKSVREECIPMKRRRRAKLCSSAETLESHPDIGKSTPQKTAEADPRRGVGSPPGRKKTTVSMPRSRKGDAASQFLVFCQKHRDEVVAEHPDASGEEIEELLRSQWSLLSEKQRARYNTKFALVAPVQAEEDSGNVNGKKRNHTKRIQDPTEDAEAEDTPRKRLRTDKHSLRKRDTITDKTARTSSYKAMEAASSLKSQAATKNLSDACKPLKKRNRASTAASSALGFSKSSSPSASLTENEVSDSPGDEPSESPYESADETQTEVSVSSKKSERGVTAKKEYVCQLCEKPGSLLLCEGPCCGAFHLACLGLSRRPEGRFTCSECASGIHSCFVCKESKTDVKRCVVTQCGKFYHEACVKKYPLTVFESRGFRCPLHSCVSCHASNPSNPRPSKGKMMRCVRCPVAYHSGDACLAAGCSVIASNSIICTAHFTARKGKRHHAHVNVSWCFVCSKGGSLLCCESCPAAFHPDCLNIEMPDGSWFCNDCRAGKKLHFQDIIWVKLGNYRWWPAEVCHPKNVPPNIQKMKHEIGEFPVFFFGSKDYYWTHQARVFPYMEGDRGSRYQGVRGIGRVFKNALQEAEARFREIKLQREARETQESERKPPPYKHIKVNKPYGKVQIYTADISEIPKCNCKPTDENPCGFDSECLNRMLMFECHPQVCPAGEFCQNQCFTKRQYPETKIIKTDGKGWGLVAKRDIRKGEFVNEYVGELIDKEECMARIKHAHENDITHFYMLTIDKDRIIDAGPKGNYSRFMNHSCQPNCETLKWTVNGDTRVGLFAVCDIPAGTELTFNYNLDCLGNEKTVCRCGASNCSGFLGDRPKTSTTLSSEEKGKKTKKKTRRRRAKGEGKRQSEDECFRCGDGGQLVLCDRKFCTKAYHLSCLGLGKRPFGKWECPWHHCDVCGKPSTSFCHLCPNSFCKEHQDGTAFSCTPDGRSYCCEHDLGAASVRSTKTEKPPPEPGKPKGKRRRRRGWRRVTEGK

In the case of `NC(=O)NO` [Hydroxyurea, hydroxyurea], the H3K9me2 level entry in assay [1] is on record as “did not affect the H3K9me2 level”. Also, the “Percentage of γ-globin proteins relative to total β-like globin proteins” value in assay [2] (day 11, 10 μM) was 8.1% and 10.3%; in assay [2] (day 11, 50 μM), 8.1% and 10.3% and 14.3%.

Regarding `Cc1c(C(=O)NC(CCC2CC2)C(=O)Nc2ccc(C#N)cc2)[nH]c2c1C(=O)CC(C)(C)C2` (stereo not drawn) [RK-701], the IC50 in assay [3] and in assay [4] was above 100 µM throughout. For the same compound, in assay [5], the erythroid differentiation result is reported as “without affecting cell viability or erythroid differentiation”.
